We go through 23 compounds from patent publication US20260216141A1, “NECROSIS INHIBITOR” (LINKGEVITY LIMITED, priority 2023, published 2026).

Entries after “also recorded” stand apart in the source; their conditions may differ. Like-named read-outs stand apart in the source and are kept apart here.

One series has as its system Hepg2s spheroids. The class given is cell-based. To be noted: for necrotic core formation / cell death necrosis relative to control: hypoxic and nutrient deprivation stress, DRAQ7, up to day 7. How it is done:
Media changes were on alternative days. […] DMSO controls were added on each plate.
In some of the following Examples, human 3D cell culture was employed using liver Hepg2 cells. 3D cell culture is known to accurately replicate a cell's native environment. During embryonic development, cells aggregate and self-assemble into complex multi-cellular structures. The same aggregation process can likewise occur in in vitro culture systems if cell-cell cohesion is favoured over cell attachment to a substrate. The resulting 3D cell culture aggregates are known as spheroids. […] A standard method of spheroid formation in U-bottom low adhesion plates was used in the Examples herein.
This is because, as the spheroids grow, only the peripheral cells obtain oxygen and nutrients from the cell culture medium. The inner cells die from cell death necrosis, with the formation of large necrotic cores (observable though use of standard live dead stains). Thus, necrotic core formation represents a naturally occurring hypoxic and nutrient stress. This resembles multiple forms of shock in humans where blood flow carrying nutrients and oxygen is disrupted to certain cells, tissues and/or organs.

For series [1] the following is noted: known in the art; cited from earlier work.
Series [2] relates to human intestinal fibroblast primary cell spheroids. As to the kind of experiment: Human intestinal fibroblast primary cell spheroids, hydrogen peroxide oxidative stress, Calcein AM/Ethidium homodimer-1 stain. To be noted: hydrogen peroxide 800 μM for 6 hrs; preventative; Dantrolene 100 μM, retinoic acid 10, 20 or 40 μM, Nifedipine 10 μM. The class given is cell-based. How it is done:
Media changes were on alternative days. […] Drug treatment was done overnight prior stress. […] Two repeats of all conditions were performed. Each repeat used 31 organoids per condition. […] DMSO controls were assessed in parallel on each plate.
Thus far, the Examples have focused on hypoxic and nutrient deprivation stressors. To test other stressors, this Example uses an oxidative stress/toxin stress model, where human intestinal fibroblast (HIF) primary cell spheroids were exposed to hydrogen peroxide. The standard viability Calcein AM/Ethidium homodimer-1 staining was used as a marker of cell death. Following 800 μM hydrogen peroxide exposure for 6 hrs, just over 25% of cells were dead in the control (i.e. relative to Triton X-100 that kills all cells).

Consider `COc1ccc([C@@H]2N[C@H](C(=O)O)Cc3c2[nH]c2ccccc32)cc1CN1CCN(c2ccccc2F)CC1` (relative stereo) [cis-Ned 19], for which, in the series on Hepg2s spheroids (Hepg2s spheroids), the “necrotic core formation / cell death necrosis relative to control” value was “no significant difference from the control; also recorded: no significant effect on level of cell death necrosis”. Same read-out and setting: with `C=C[C@H]1C[N@@]2CC[C@H]1C[C@H]2[C@H](O)c1ccnc2ccc(OC)cc12` [quinine] the entry was “No significant necrosis prevention and/or treatment”. Regarding `CCCCC/C=C\C/C=C\CCCCCCCC(=O)O` [linoleic acid], the “level of cell death / toxicity in isolation relative to control” value with Hepg2s spheroids is “greater toxicity relative to control”. Also, in the series on Hepg2s spheroids (Hepg2s spheroids), the “necrotic core formation / cell death necrosis relative to control” value is given as “No significant necrosis prevention and/or treatment”. Consider `O=C(O)c1ccccc1Nc1cccc(C(F)(F)F)c1` [flufenamic acid], for which, in the series on Hepg2s spheroids (Hepg2s spheroids), the “necrotic core formation / cell death necrosis relative to control” value was “No significant necrosis prevention and/or treatment”.

Turning to `Cc1ccc(Cl)c(Nc2ccccc2C(=O)O)c1Cl` [meclofenamic acid], the “necrotic core formation / cell death necrosis relative to control” value in the series with Hepg2s spheroids (Hepg2s spheroids) was “No significant necrosis prevention and/or treatment”.

Take `CC1(C)[C@@H](O)CC[C@]2(C)[C@H]3C(=O)C=C4[C@@H]5C[C@@](C)(C(=O)O)CC[C@]5(C)CC[C@@]4(C)[C@]3(C)CC[C@@H]12` [glycyrrhetinic acid]: the “necrotic core formation / cell death necrosis relative to control” value in the series on Hepg2s spheroids (Hepg2s spheroids) is “No significant necrosis prevention and/or treatment”.

Consider `CCCCCCCO` [heptanol], for which the “necrotic core formation / cell death necrosis relative to control” value in the series with Hepg2s spheroids (Hepg2s spheroids) is “No significant necrosis prevention and/or treatment”. Regarding `O=C(O)c1cccnc1Nc1cccc(C(F)(F)F)c1` [niflumic acid], the “necrotic core formation / cell death necrosis relative to control” value in the series with Hepg2s spheroids (Hepg2s spheroids) was “No significant necrosis prevention and/or treatment”. For `CC(=O)OCOC(=O)CN(CC(=O)OCOC(C)=O)c1ccccc1OCCOc1ccccc1N(CC(=O)OCOC(C)=O)CC(=O)OCOC(C)=O` [BAPTA-AM, 2-[N-[2-(acetyloxymethoxy)-2-oxoethyl]-2-[2-[2-[bis [2-(acetyloxymethoxy)-2-oxoethyl]amino]phenoxy]ethoxy]anilino]acetic acid acetyloxymethyl ester], the “toxicity at earlier time points” value in the series on Hepg2s spheroids (time points earlier than day 7) is “some milder toxicity in some trials”. The necrosis suppression result in the series on Hepg2s spheroids (x8 dosage, 25 μM, day 7) is recorded as “significant necrosis suppression”. In series [1], the “cell culture dosages considered maximum dosages which result in minimum toxicity” value was 1 to 3 µM.

For `CCCCCCCC/C=C\CCCCCCCC(N)=O` [oleamide], the “necrotic core formation / cell death necrosis relative to control” value with Hepg2s spheroids (Hepg2s spheroids) is recorded as “No significant necrosis prevention and/or treatment”. Consider `CCN(CC)CCOC(=O)c1ccc(N)cc1` [procaine], for which the “necrotic core formation / cell death necrosis relative to control” value in the series on Hepg2s spheroids (Hepg2s spheroids) is recorded as “no significant difference from the controls; also recorded: no significant effect on level of cell death necrosis”. `O=C1CN(/N=C/c2ccc(-c3ccc([N+](=O)[O-])cc3)o2)C(O)=N1` [Dantrolene]: the “necrotic core formation / cell death necrosis relative to control” value in the series on Hepg2s spheroids (Hepg2s spheroids) is recorded as “no significant difference from the control; also recorded: no significant effect on necrosis inhibition; also recorded: no significant effect on cell necrosis relative to control”; in the series on Hepg2s spheroids (Hepg2s spheroids, listed as dantrolene), “no significant difference to control”. In addition, in series [2], the “necrosis following oxidative stress relative to control” value is on record as “either no significant difference or a worse effect to control”. Take `C=C[C@H]1C[N@@]2CC[C@H]1C[C@@H]2[C@@H](O)c1ccnc2ccc(OC)cc12` [quinidine]: the “necrotic core formation / cell death necrosis relative to control” value with Hepg2s spheroids (Hepg2s spheroids) is “No significant necrosis prevention and/or treatment”.

Turning to `CCCCCCCCO` [octanol], in the series with Hepg2s spheroids (Hepg2s spheroids), the “necrotic core formation / cell death necrosis relative to control” value was “No significant necrosis prevention and/or treatment”. Moreover, in the series with Hepg2s spheroids (compound in isolation, most trials), the “level of cell death / toxicity in isolation relative to control” value is recorded as “greater toxicity relative to control”. For `O=C(O)CN(CCN(CC(=O)O)CC(=O)O)CCN(CC(=O)O)CC(=O)O` [DTPA, diethylenetriaminepentaacetic acid], the “toxicity at earlier time points” value in the series on Hepg2s spheroids was “some mild, but not statistically significant, toxicity”. Besides, the “dosage needed to suppress necrosis” value in the series on Hepg2s spheroids (Hepg2s spheroids, day 7) stood at 4000 µM. Also, in series [1], the “cell culture dosages considered maximum dosages which result in minimum toxicity” value is listed as “around 50 μM”. With `COc1ccc([C@H]2N[C@H](C(=O)O)Cc3c2[nH]c2ccccc32)cc1CN1CCN(c2ccccc2F)CC1` (relative stereo) [trans-Ned 19], in the series with Hepg2s spheroids (Hepg2s spheroids), the “necrotic core formation / cell death necrosis relative to control” value is recorded as “no significant difference from the control; also recorded: no significant effect on level of cell death necrosis”. As to `CC1(C)[C@@H](OC(=O)CCC(=O)O)CC[C@]2(C)[C@H]3C(=O)C=C4[C@@H]5C[C@@](C)(C(=O)O)CC[C@]5(C)CC[C@@]4(C)[C@]3(C)CC[C@@H]12` [carbenoxolone], the “necrotic core formation / cell death necrosis relative to control” value in the series with Hepg2s spheroids (Hepg2s spheroids) is on record as “No significant necrosis prevention and/or treatment”.

As for ryanodine, the “necrotic core formation / cell death necrosis relative to control” value in the series on Hepg2s spheroids (Hepg2s spheroids) was “no significant difference from the control; also recorded: no significant difference to control”. Take `FC(F)(F)C(Cl)Br` (stereo not shown) [halothane]: in the series on Hepg2s spheroids (Hepg2s spheroids), the “necrotic core formation / cell death necrosis relative to control” value is “No significant necrosis prevention and/or treatment”. Still for that read-out and setting: with `CCCCCCCC/C=C\CCCCCCCC(=O)O` [oleic acid] the entry was “no significant difference from the control; also recorded: No significant necrosis prevention and/or treatment; also recorded: no significant effect on cell necrosis relative to control”; with `CCCCC/C=C\C/C=C\C/C=C\C/C=C\CCCC(=O)O` [arachidonic acid], “No significant necrosis prevention and/or treatment”. As to `N.N.N.N.N.N.N.N.N.N.N.N.N.N.[Cl-].[Cl-].[Cl-].[Cl-].[Cl-].[Cl-].[O-2].[O-2].[Ru+3].[Ru+3].[Ru+4]` [ruthenium red], the “necrotic core formation / cell death necrosis relative to control” value with Hepg2s spheroids (Hepg2s spheroids) is “no significant difference from the controls; also recorded: no significant effect on level of cell death necrosis”. Turning to `OC(c1cc(C(F)(F)F)nc2c(C(F)(F)F)cccc12)C1CCCCN1` (stereo not shown) [mefloquine], the “necrotic core formation / cell death necrosis relative to control” value in the series on Hepg2s spheroids (Hepg2s spheroids) is “No significant necrosis prevention and/or treatment”.
